The text below walks through data of PMC5078989, “Targeted inhibition of the COP9 signalosome for treatment of cancer” (Nature Communications, 2016).

One series addresses CYP3A4 (Homo sapiens, UniProt P08684). The series is described as follows: CYP3A4 inhibition. It counts as in vitro ADME. An excerpt:
Table 2 CYP3A4 inhibition and key pharmacokinetic parameters in mice of CSN5 inhibitors. | column: CSN5i-2; CSN5i-3

Series [1] is described as follows: Pharmacokinetics in mice (single i.v. and oral dose). The conditions noted are these: mouse, in vivo, mice (n=3), single i.v. 1 mg per kg and single oral 3 mg per kg dose; for clearance: read-out: Cl (clearance); for bioavailability: read-out: F (absolute bioavailability); for half-life: read-out: t1/2 (half-life).
The target in the next series is T1, CSN5 (Homo sapiens, UniProt Q92905).
T1 construct: made in house; host or cells: Sf21 insect cells, co-infection of separate baculoviruses
Kind of series: CSN5 activity assay (CSN deneddylation, fluorescence polarization). It counts as biochemical. The conditions noted are these: JAMM domain protease; means±s.d. The method, then:
Unlike the majority of proteases, it is not active as an individual subunit or as an isolated catalytic domain. […] For the identification of CSN inhibitors, we therefore conducted a high-throughput screening campaign using a biochemical assay with recombinant CSN and a fluorescence-labelled and NEDD8-modified CRL substrate[30][40] (PT22-NEDD8-SCF^Skp2; Supplementary Table 1).
The potency of CSN5 inhibitors was determined in a CSN activity assay using changes in fluorescence polarization as the readout. Reactions were carried out at room temperature in 384-well plates. […] The effect of compound on enzymatic activity was determined from the linear part of the progression curves by an end-point measurement of the fluorescence polarization at 590 nm after excitation at 540 nm using a PHERAstar plate reader (BMG LABTECH GmbH). IC50 values were calculated from the plot of percentage of inhibition versus inhibitor concentration using the non-linear regression analysis software Origin 7.5SR6 (OriginLab Corp.).
(In general: Polarisation of emitted light reports the rotation of a fluorescent probe.)

The test system of a further series is SU-DHL-1 xenografts. The series is described as follows: Immunoblotting for Cul1 and Skp2 of tumours excised at end of treatment. Type of series: in vivo, SCID-bg mice. The conditions noted are these: tumours excised at the end of the study. The method, then:
(a) SU-DHL-1 xenografts were grown in SCID-bg mice and dosed by oral administration with either vehicle control or CSN5i-3 at the indicated doses and schedules. Mean tumour volumes are shown±s.e.m. (n=4; P<0.05). (b) Immunoblotting for Cul1 and Skp2 of tumours excised at the end of treatment. (c) Pharmacokinetics of CSN5i-3 post second to last dose. Mean blood concentrations are shown±s.e.m. (n=4). […] Cells from longer compound incubations were also lysed in RIPA buffer, which allows the protein concentration to be determined by BCA Protein Assay Kit (Pierce). Proteins were separated by SDS-PAGE using 4-20% Tris-Glycine Gels (Invitrogen) and subsequently transferred to polyvinylidene difluoride membranes using a Trans-Blot Turbo System (BioRad). […] Cul1 (1:500; #718700), Cul2 (1:250; #7001792), Rbx1 (1:300; #342500) (Invitrogen); Fbxw7 (1:300; # 55290-1-AP), Fbxo22 (1:500; #13606-1-AP) (Proteintech); Cul3 (1:1,000; # […]), CSN5 (1:2,000; #[…]) (Bethyl Laboratories); Fbxo3 (1:300; #AP9195) (Abgent); p21 (1:500; #556431) (BD Biosciences); Fbxo30 (1:500; # H00084085-B01) (Abnova); β-Actin (1:5,000; #A5441) (Sigma-Aldrich); Fbxo7 (1:500; #PA527589) (Pierce). Horseradish peroxidase-conjugated secondary antibodies (1:3,000) were purchased from Promega AG and bound antibody was detected by enhanced chemiluminescence (Pierce). […]
For orientation: A western blot detects proteins with antibodies after separation by electrophoresis.

The subject of a further series is TE-1 cells. Kind of series: Cell viability assay (CellTiter-Glo), TE-1. It counts as cell-based, human. The conditions noted are these: TE-1, 72 h; cytostatic. The method, then:
(§1) Cells were maintained in a humidified incubator at 37 °C and 5% CO2. […] All cells were negatively tested for mycoplasma contamination either by the vendor or in house. […] If not stated otherwise, cells were harvested after incubation for 16 h and subjected to SDS-PAGE and western blotting. The RNA interference experiment was performed with CSN5 stealth siRNA (#HSS116986) and stealth negative control siRNA (#12935-400) (Invitrogen), which were transfected at 10 nM into HCT116 cells using […] (Qiagen) according to the manufacturer's protocols. Seventy-two hours after transfection, cells were harvested and subjected to SDS-PAGE and western blotting (see Supplementary Fig. 7 for all western blottings performed). A standardized CellTiter-Glo Assay (Promega #G7570) based on the quantification of ATP was applied according to the manufacturer's protocol to measure the amount of viable cells in culture. In brief, cells were seeded into 384-well plates at optimal density for each cell line. After 4 h, compounds were added at different concentrations in growth medium and incubated for another 72 h in a humidifying chamber at 37 °C and 5% CO2. Eventually, equal amounts of CellTiter-Glo reagent were added directly to the cells, incubated for 15 min and luminescence was recorded using PHERAstar plate reader (BMG LABTECH GmbH).
For orientation: In ATP-based viability assays light output follows the ATP content of the culture.

The next series deals with THP-1 cells. Kind of series: Cell viability assay (CellTiter-Glo), THP-1. Type of series: cell-based, human. The conditions noted are these: THP-1, 72 h; cytotoxic. The method, then: as §1

CYP3A4, sequence (P08684 whole entry, species assumed): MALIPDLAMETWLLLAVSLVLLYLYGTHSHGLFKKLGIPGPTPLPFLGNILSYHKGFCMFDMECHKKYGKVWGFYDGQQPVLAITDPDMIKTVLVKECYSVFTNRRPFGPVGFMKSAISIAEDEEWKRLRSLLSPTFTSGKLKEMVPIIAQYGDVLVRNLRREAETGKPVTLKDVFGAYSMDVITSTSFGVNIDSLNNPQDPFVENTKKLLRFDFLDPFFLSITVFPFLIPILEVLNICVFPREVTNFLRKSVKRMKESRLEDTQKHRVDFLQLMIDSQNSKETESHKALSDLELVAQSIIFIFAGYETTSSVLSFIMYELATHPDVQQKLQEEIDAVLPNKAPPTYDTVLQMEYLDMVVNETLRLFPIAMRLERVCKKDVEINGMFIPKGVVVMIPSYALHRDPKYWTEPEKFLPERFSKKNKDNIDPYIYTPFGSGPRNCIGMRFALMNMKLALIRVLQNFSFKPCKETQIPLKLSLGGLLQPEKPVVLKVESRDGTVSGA

As usually defined, the IC50 is the concentration that inhibits the measured activity by half. Lower therefore signals higher potency. The bioavailability is dose-corrected exposure relative to a reference, in per cent. Regarding `COCc1ccccc1NCc1ccc([C@H]2[C@@H](O)CCCc3cncn32)c(-c2ccccc2Cl)c1` [CSN5i-2, (5S,6S)-5-(2′-chloro-5-(((2-(methoxymethyl)phenyl)amino)methyl)-[1,1′-biphenyl]-2-yl)-6,7,8,9-tetrahydro-5H-imidazo[1,5-a]azepin-6-ol], the IC50 on CYP3A4 was below 0.5 µM. Also, in series [1], the clearance was found to be 4.92 ± 1.5 L/h/kg, the bioavailability is below 1% and the half-life was 0.6 ± 0.0167 h. On CSN5, this molecule displayed an IC50 of 0.002 ± 0.001 µM.
`COCc1ccccc1NCc1ccc([C@@H]2[C@H](O)CCCc3cncn32)c(-c2ccccc2Cl)c1` [CSN5i-2e, (5R,6R)-5-(2′-chloro-5-(((2-(methoxymethyl)phenyl)amino)methyl)-[1,1′-biphenyl]-2-yl)-6,7,8,9-tetrahydro-5H-imidazo[1,5-a]azepin-6-ol] displayed an IC50 on CSN5 of 2.1 ± 1.8 µM.
On to `CC(C)n1nc(C(F)F)cc1C(=O)Nc1ccc([C@H]2[C@@H](O)CCCc3cncn32)c(-c2ccccc2)c1` [CSN5i-3, 3-(Difluoromethyl)-N-(6-((5S,6S)-6-hydroxy-6,7,8,9-tetrahydro-5H-imidazo[1,5-a]azepin-5-yl)-[1,1′-biphenyl]-3-yl)-1-isopropyl-1H-pyrazole-5-carboxamide], for which, in the series with SU-DHL-1 xenografts, the “Cul1 deneddylation in tumours” value is on record as “inhibited” and the “Skp2 levels in tumours” value is “reduced”. Further, in the series on TE-1 cells, the AMAX result is “about −50%”. At CYP3A4, this molecule registered an IC50 of 6.8 ± 1.8 µM. For the same molecule, in series [1], the clearance came out at 2.16 ± 0.18 L/h/kg, the bioavailability is 33 ± 2% and the half-life turned out to be 2.5 ± 0.3 h. Further, the AMAX in the series on THP-1 cells was at most −95%.
